Source: US10335427B2, “Tumor prevention and treatment drug and applications thereof” (priority 2016, dated 2019)

How the values were obtained:
Hela cells = assay: Hela tumor mass growth in nude mice (tumor weight, inhibition rate); type: in vivo, Balb/c nude mice; details: i.v. twice every week, 10 times, 8-oxodGTP 500 μg/kg/time, 5-FU 15 mg/kg/time
Protocol: 5×10^6 Hela cells (200 μl) were inoculated subcutaneously into the armpit of nude mice. After growing to a certain size, the tumor mass was reinoculated subcutaneously into the armpit of 24 nude mice, which were then randomly grouped into the 5-FU positive control group, the blank carrier control group, and the 8-oxodGTP group, and on the second day after the second inoculation, these nude mice were dosed intravenously. The 5-FU group was injected at a dose of 15 mg/kg/time, the 8-oxodGTP group was injected at a dose of 500 μg/kg/time, and the carrier control group was injected at an equal volume of blank carrier reagents. The injections were performed twice every week, for a total of 10 times. After the injections, the tumor mass was taken and weighed, so as to calculate the inhibition rate (inhibition rate=(1-T experimental group/C control group)×100%).

tumor cells = details: cited from earlier work
[1] = test system: melanomas, SW480 colorectal cancer and MCF7 breast cancer; details: cited from earlier work

Row | Structure (SMILES) | Tumor weight (Hela cells) [mg] | Inhibition rate (Hela cells; vs blank carrier group) [%] | Effect of MTH1 inhibition on tumor cells (tumor cells) | Effect in nude mice transplantation experiments [1]
1 | O=c1[nH]cc(F)c(=O)[nH]1 [5-FU, 5-fluorouracil] | 988 ± 436.94 | 18 |  | 
2 | CNc1cc(-c2cccc(Cl)c2Cl)nc(N)n1 [TH287] |  |  | selectively kill tumor cells | 
3 | Nc1nc(NC2CC2)cc(-c2cccc(Cl)c2Cl)n1 [TH588] |  |  | selectively kill tumor cells | therapeutic effects
